Source: patent US4959374A, “Novel compounds” (Beecham Group P.L.C., priority 1989, dated 1990)

Test system: CFLP female mice
Test: Reversal of Adrenaline-Exacerbated Glucose Intolerance in Mice
Format: in vivo
Settings: oral gavage, glucose 1 g/kg and adrenaline 300 μg/kg s.c., 0-120 minutes, versus water control, 24 h fasted mice
Procedure: (A) Reversal of Adrenaline-Exacerbated Glucose Intolerance in Mice
CFLP female mice of about 25 g were fasted for 24 hours prior to receiving water (10 ml/kg) or compounds by oral gavage. Thirty minutes later, glucose (1 g/kg) and adrenaline (300 μg/kg) were injected subcutaneously. Blood samples for glucose analysis were taken serially from the tail of each mouse at 0, 30, 60, 90 and 120 minutes after dosing glucose and the results are expressed below as the percentage reduction in the area under the blood glucose curve; the compound treated groups being compared to the water dosed control group. Six mice were used in each treatment group.

Row | Compound | % Reduction in area under Blood Glucose Curve (10 μmol/kg) [%] | % Reduction in area under Blood Glucose Curve (20 μmol/kg) [%]
1 | c1ccc2c(c1)CN(CC1=NCCN1)C2 [Example 1, 2-[2H-(1,3-Dihydroisoindole)methyl]-4,5-dihydroimidazole] | 40 | –
2 | Clc1ccc2c(c1)CN(CC1=NCCN1)C2 [Example 3, 2-[2H-(5-Chloro-1,3-dihydroisoindole)methyl]-4,5-dihydroimidazole] | – | 44
3 | Clc1cccc2c1CN(CC1=NCCN1)C2 [Example 2, 2-[2H-(4-Chloro-1,3-dihydroisoindole)methyl]-4,5-dihydroimidazole] | 24 | –
